Literature values, collected in patent publication US20160330969A1, “ANTIMICROBIAL COMPOSITIONS AND ARTICLES” (priority 2013, published 2016).

Conditions: decomposition to chlorite and chlorate species, pH 5-8 region

OCl [HOCl, hypochlorous acid]
pH of maximum rate of decomposition: 6.89
